Assay results from patent US20250195530A1, “POLQ INHIBITORS” (ASTRAZENECA AB, priority 2022, published 2025).
Where two headings read alike, the source gives them in different places.

Tested on: DLD-1 BRCA2−/− cells
Assay: Homologous recombination synthetic lethal inhibition of proliferation, DLD-1 BRCA2-/- (Cell Titre Glo 3D)
Assay type: cell-based
Conditions: Homo sapiens, read-out: POLQ PD Prolif Lumin (converted)
Summary of the method: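 Wild-type DLD-1 serves as the control for non-specific toxicity, and BRCA2-null DLD-1 as the homologous-recombination-deficient line. Both grew with compound from 10 μM down to 0.51 nM, re-dosed after 6 days. Luminescent ATP content (CellTiter-Glo 3D) was read after 7 or 12 days, respectively, to give IC50 values.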

[1] = DLD-1, first proliferation column (c5), DLD-1 BRCA2-/-
[2] = DLD-1, DLD-1 BRCA2-/- proliferation, column head only partly shown

| Compound | IC50 [1] | IC50 [2] |
| --- | --- | --- |
| Cc1ccccc1Cn1c(-c2ccc(OCCC(=O)O)cc2Cl)nc2c(OC3(C)CC3)ncnc21 [Example T168, 3-(3-chloro-4-(9-(2-methylbenzyl)-6-(1-methylcyclopropoxy)-9H-purin-8-yl)phenoxy)propanoic acid] | 1260 nM |  |
| Cc1ccnc(Cn2c(-c3ccc(C(=O)NC4CC4)cc3Cl)nc3c(OC4(C)CC4)ncnc32)c1 [Example T170, 3-chloro-N-cyclopropyl-4-(6-(1-methylcyclopropoxy)-9-((4-methylpyridin-2-yl)methyl)-9H-purin-8-yl)benzamide] | 631 nM |  |
| Cc1ccnc(Cn2c(-c3ccc(C(=O)NC4COC4)cc3Cl)nc3c(OC4(C)CC4)ncnc32)c1 [Example T177, 3-chloro-4-(6-(1-methylcyclopropoxy)-9-((4-methylpyridin-2-yl)methyl)-9H-purin-8-yl)-N-(oxetan-3-yl)benzamide] | 1000 nM |  |
| Cc1ccnc(Cn2c(-c3ccc(C(=O)N4CC(O)C4)cc3Cl)nc3c(OC4(C)CC4)ncnc32)c1 [Example T180, (3-chloro-4-(6-(1-methylcyclopropoxy)-9-((4-methylpyridin-2-yl)methyl)-9H-purin-8-yl)phenyl)(3-hydroxyazetidin-1-yl)methanone] | 1000 nM |  |
| Cc1ccnc(Cn2c(-c3ccc(N4CCOCC4=O)cc3Cl)nc3c(OC4(C)CC4)ncnc32)c1 [Example T182, 4-(3-chloro-4-(6-(1-methylcyclopropoxy)-9-((4-methylpyridin-2-yl)methyl)-9H-purin-8-yl)phenyl)morpholin-3-one] | 631 nM |  |
| Cc1ccnc(Cn2c(-c3ccc(O[C@H]4CNC(=O)C4)cc3Cl)nc3c(OC4(C)CC4)ncnc32)c1 [Example T183, (R)-4-(3-chloro-4-(6-(1-methylcyclopropoxy)-9-((4-methylpyridin-2-yl)methyl)-9H-purin-8-yl)phenoxy)pyrrolidin-2-one] | 398 nM |  |
| Cc1ccnc(Cn2c(-c3ccc(O[C@@H]4CNC(=O)C4)cc3Cl)nc3c(OC4(C)CC4)ncnc32)c1 [Example T184, (S)-4-(3-chloro-4-(6-(1-methylcyclopropoxy)-9-((4-methylpyridin-2-yl)methyl)-9H-purin-8-yl)phenoxy)pyrrolidin-2-one] | 251 nM |  |
| Cc1ccnc(Cn2c(-c3ccc(OC[C@H]4CNC(=O)O4)cc3Cl)nc3c(OC4(C)CC4)ncnc32)c1 [Example T188, (R)-5-((3-chloro-4-(6-(1-methylcyclopropoxy)-9-((4-methylpyridin-2-yl)methyl)-9H-purin-8-yl)phenoxy)methyl)oxazolidin-2-one] | 501 nM |  |
| CC1(Oc2ncnc3c2nc(-c2ccc(OCCC(=O)NS(C)(=O)=O)cc2Cl)n3Cc2cccc(Cl)c2)CC1 [Example T189, 3-(3-chloro-4-(9-(3-chlorobenzyl)-6-(1-methylcyclopropoxy)-9H-purin-8-yl)phenoxy)-N-(methylsulfonyl)propanamide] | 3980 nM |  |
| Cc1ccnc(Cn2c(-c3ccc(C(=O)NC[C@H](C)F)cc3Cl)nc3c(OC4(C)CC4)ncnc32)c1 [Example T190, (S)-3-chloro-N-(2-fluoropropyl)-4-(6-(1-methylcyclopropoxy)-9-((4-methylpyridin-2-yl)methyl)-9H-purin-8-yl)benzamide] | 398 nM |  |
| Cc1ccnc(Cn2c(-c3ccc(C(=O)NCCCF)cc3Cl)nc3c(OC4(C)CC4)ncnc32)c1 [Example T191, 3-chloro-N-(3-fluoropropyl)-4-(6-(1-methylcyclopropoxy)-9-((4-methylpyridin-2-yl)methyl)-9H-purin-8-yl)benzamide] | 398 nM |  |
| Cc1ccnc(Cn2c(-c3ccc(OCC4COC4)cc3Cl)nc3c(OC4(C)CC4)ncnc32)c1 [Example T193, 8-(2-chloro-4-(oxetan-3-ylmethoxy)phenyl)-6-(1-methylcyclopropoxy)-9-((4-methylpyridin-2-yl)methyl)-9H-purine] | 251 nM |  |
| Cc1ccnc(Cn2c(-c3ccc(OC[C@H]4CCO4)cc3Cl)nc3c(OC4(C)CC4)ncnc32)c1 [Example T194, (R)-8-(2-chloro-4-(oxetan-2-ylmethoxy)phenyl)-6-(1-methylcyclopropoxy)-9-((4-methylpyridin-2-yl)methyl)-9H-purine] | 251 nM |  |
| CNC(=O)COc1ccc(-c2nc3c(OC4(C)CC4)ncnc3n2CCc2ccccc2)c(Cl)c1 [Example T195, 2-(3-chloro-4-(6-(1-methylcyclopropoxy)-9-phenethyl-9H-purin-8-yl)phenoxy)-N-methylacetamide] | 1260 nM |  |
| Cc1ccnc(Cn2c(-c3ccc(O[C@H]4CCOC4)cc3Cl)nc3c(OC4(C)CC4)ncnc32)c1 [Example T196, (S)-8-(2-chloro-4-((tetrahydrofuran-3-yl)oxy)phenyl)-6-(1-methylcyclopropoxy)-9-((4-methylpyridin-2-yl)methyl)-9H-purine] | 100 nM |  |
| Cc1ccnc(Cn2c(-c3ccc(OCC4(O)COC4)cc3Cl)nc3c(OC4(C)CC4)ncnc32)c1 [Example T200, 3-((3-chloro-4-(6-(1-methylcyclopropoxy)-9-((4-methylpyridin-2-yl)methyl)-9H-purin-8-yl)phenoxy)methyl)oxetan-3-ol] | 316 nM |  |
| Cc1ccnc(Cn2c(-c3ccc(N4CCNC(=O)C4)cc3Cl)nc3c(OC4(C)CC4)ncnc32)c1 [Example T201, 4-(3-chloro-4-(6-(1-methylcyclopropoxy)-9-((4-methylpyridin-2-yl)methyl)-9H-purin-8-yl)phenyl)piperazin-2-one] | 501 nM |  |
| Cc1ccnc(Cn2c(-c3ccc(N4CCNCC4=O)cc3Cl)nc3c(OC4(C)CC4)ncnc32)c1 [Example T202, 1-(3-chloro-4-(6-(1-methylcyclopropoxy)-9-((4-methylpyridin-2-yl)methyl)-9H-purin-8-yl)phenyl)piperazin-2-one] |  | 2510 nM |
| Cc1ccnc(Cn2c(-c3ccc(C(=O)NC(C)C)cc3Cl)nc3c(OC4(C)CC4)ncnc32)c1 [Example T211, 3-chloro-N-isopropyl-4-(6-(1-methylcyclopropoxy)-9-((4-methylpyridin-2-yl)methyl)-9H-purin-8-yl)benzamide] |  | 501 nM |
| CC(=O)NCCc1ccc(-c2nc3c(OC4(C)CC4)ncnc3n2Cc2cc(C)ccn2)c(Cl)c1 [Example T212, N-(3-chloro-4-(6-(1-methylcyclopropoxy)-9-((4-methylpyridin-2-yl)methyl)-9H-purin-8-yl)phenethyl)acetamide] |  | 398 nM |
| CCNC(=O)Cc1ccc(-c2nc3c(OC4(C)CC4)ncnc3n2Cc2cc(C)ccn2)c(Cl)c1 [Example T213, 2-(3-chloro-4-(6-(1-methylcyclopropoxy)-9-((4-methylpyridin-2-yl)methyl)-9H-purin-8-yl)phenyl)-N-ethylacetamide] |  | 251 nM |
| CNC(=O)CCc1ccc(-c2nc3c(OC4(C)CC4)ncnc3n2Cc2cc(C)ccn2)c(Cl)c1 [Example T214, 3-(3-chloro-4-(6-(1-methylcyclopropoxy)-9-((4-methylpyridin-2-yl)methyl)-9H-purin-8-yl)phenyl)-N-methylpropanamide] |  | 316 nM |
| Cc1ccnc(Cn2c(-c3ccc(OCC(=O)N(C)C)cc3Cl)nc3c(OC4(C)CC4)ncnc32)c1 [Example T216, 2-(3-chloro-4-(6-(1-methylcyclopropoxy)-9-((4-methylpyridin-2-yl)methyl)-9H-purin-8-yl)phenoxy)-N,N-dimethylacetamide] |  | 316 nM |
